Measured values reported in the NIST ThermoML archive (doi:10.1021/je034203p).

Tests used:
[1] = 298.15 K, 101.3 kPa, Liquid; for viscosity: Capillary tube (Ostwald / Ubbelohde) method
[2] = xn = mol fraction of the nth substance listed; conditions: 298.15 K, 101.3 kPa, Liquid; for viscosity: Capillary tube (Ostwald / Ubbelohde) method

CCC(C)O (centres undefined) [butan-2-ol]
[1]
Conditions | mass density [kg/m3] | viscosity [mPa·s]
– | 804.8 | 3.103

CC(C)=O [acetone]
[1]
Conditions | mass density [kg/m3] | viscosity [mPa·s]
– | 780.8 | 0.3121

ClC=C(Cl)Cl [trichloroethene]
[1]
Conditions | mass density [kg/m3] | viscosity [mPa·s]
– | 1455.7 | 0.551

ClC(Cl)=C(Cl)Cl [tetrachloroethene]
[1]
Conditions | mass density [kg/m3] | viscosity [mPa·s]
– | 1610.2 | 0.8474

CCOC(C)=O [ethyl acetate]
[1]
Conditions | mass density [kg/m3] | viscosity [mPa·s]
– | 894 | 0.4274

Cc1ccccc1 [toluene]
[1]
Conditions | mass density [kg/m3] | viscosity [mPa·s]
– | 860.5 | 0.5641

c1ccccc1 [benzene]
[1]
Conditions | mass density [kg/m3] | viscosity [mPa·s]
– | 869.7 | 0.608

CCCO [propan-1-ol]
[1]
Conditions | mass density [kg/m3] | viscosity [mPa·s]
– | 800 | 1.954

CCC(C)=O [butanone]
[1]
Conditions | mass density [kg/m3] | viscosity [mPa·s]
– | 797.4 | 0.4011

ClC(Cl)=C(Cl)Cl [tetrachloroethene] + CCCCO
[2]
Conditions | mass density [kg/m3] | viscosity [mPa·s]
x1 = 0.0901 | 885.2 | 2.255
x1 = 0.1823 | 964.3 | 1.986
x1 = 0.2766 | 1043.5 | 1.717
x1 = 0.3727 | 1122.5 | 1.496
x1 = 0.4713 | 1201.7 | 1.314
x1 = 0.5727 | 1283 | 1.158
x1 = 0.6759 | 1364.2 | 1.045
x1 = 0.7809 | 1444.6 | 0.9519
x1 = 0.8891 | 1526 | 0.8894
x1 = 1 | 1610.2 | 0.8474

ClC(Cl)=C(Cl)Cl [tetrachloroethene] + CC(C)O
[2]
Conditions | mass density [kg/m3] | viscosity [mPa·s]
x1 = 0.0763 | 864.9 | 1.855
x1 = 0.1567 | 946.4 | 1.676
x1 = 0.2417 | 1026.7 | 1.51
x1 = 0.3313 | 1107.5 | 1.364
x1 = 0.4266 | 1189.3 | 1.236
x1 = 0.5276 | 1271.6 | 1.123
x1 = 0.6349 | 1355.4 | 1.025
x1 = 0.7486 | 1437.6 | 0.9401
x1 = 0.8705 | 1523.6 | 0.8824
x1 = 1 | 1610.2 | 0.8474

CC(C)O [propan-2-ol]
[1]
Conditions | mass density [kg/m3] | viscosity [mPa·s]
– | 784.3 | 2.044

COC(C)=O [methyl ethanoate] + ClC(Cl)=C(Cl)Cl
[2], x2 = 0
Conditions | mass density [kg/m3] | viscosity [mPa·s]
– | 923.9 | 0.3711

ClC=C(Cl)Cl [trichloroethene] + CCC(C)=O
[2]
Conditions | mass density [kg/m3] | viscosity [mPa·s]
x1 = 0.1004 | 861.2 | 0.4307
x1 = 0.2005 | 924.2 | 0.4566
x1 = 0.3002 | 987.2 | 0.4835
x1 = 0.4005 | 1052.5 | 0.5088
x1 = 0.5005 | 1117.6 | 0.5281
x1 = 0.6007 | 1183.7 | 0.5391
x1 = 0.7004 | 1249.6 | 0.5455
x1 = 0.8004 | 1315.5 | 0.5499
x1 = 0.8998 | 1385.4 | 0.5495
x1 = 1 | 1455.7 | 0.551

CCCCO [butan-1-ol] + ClC(Cl)=C(Cl)Cl
[2], x2 = 0
Conditions | mass density [kg/m3] | viscosity [mPa·s]
– | 806.3 | 2.538

ClC(Cl)=C(Cl)Cl [tetrachloroethene] + CC(C)=O
[2]
Conditions | mass density [kg/m3] | viscosity [mPa·s]
x1 = 0.0742 | 862.2 | 0.3537
x1 = 0.1529 | 943.8 | 0.398
x1 = 0.2362 | 1025.5 | 0.4442
x1 = 0.3247 | 1107.7 | 0.4942
x1 = 0.4192 | 1189.6 | 0.5459
x1 = 0.5201 | 1272.3 | 0.6021
x1 = 0.6279 | 1356.2 | 0.6581
x1 = 0.7428 | 1440.3 | 0.7167
x1 = 0.8671 | 1524.6 | 0.7802
x1 = 1 | 1610.2 | 0.8474

ClC(Cl)=C(Cl)Cl [tetrachloroethene] + COC(C)=O
[2]
Conditions | mass density [kg/m3] | viscosity [mPa·s]
x1 = 0.0796 | 989.2 | 0.4237
x1 = 0.1628 | 1054.7 | 0.4749
x1 = 0.25 | 1120.7 | 0.5226
x1 = 0.3415 | 1188.6 | 0.5729
x1 = 0.4373 | 1255.3 | 0.6243
x1 = 0.5388 | 1322.7 | 0.6708
x1 = 0.6452 | 1393.1 | 0.7166
x1 = 0.7573 | 1464.2 | 0.7614
x1 = 0.8749 | 1535.4 | 0.8038
x1 = 1 | 1610.2 | 0.8474

CCO [ethanol]
[1]
Conditions | mass density [kg/m3] | viscosity [mPa·s]
– | 787.4 | 1.112

CCO [ethanol] + ClC=C(Cl)Cl
[2], x2 = 0
Conditions | mass density [kg/m3] | viscosity [mPa·s]
– | 787.4 | 1.112

ClC(Cl)=C(Cl)Cl [tetrachloroethene] + ClC(Cl)(Cl)Cl
[2]
Conditions | mass density [kg/m3] | viscosity [mPa·s]
x1 = 0.0946 | 1583.5 | 0.8943
x1 = 0.1904 | 1582.4 | 0.8803
x1 = 0.2873 | 1582 | 0.8675
x1 = 0.3853 | 1582.5 | 0.8569
x1 = 0.4845 | 1583.8 | 0.8504
x1 = 0.5859 | 1587.2 | 0.8452
x1 = 0.6876 | 1590.1 | 0.8407
x1 = 0.7904 | 1596.8 | 0.8422
x1 = 0.8946 | 1603.2 | 0.8445
x1 = 1 | 1610.2 | 0.8474

CCC(C)O (centres undefined) [butan-2-ol] + ClC(Cl)=C(Cl)Cl
[2], x2 = 0
Conditions | mass density [kg/m3] | viscosity [mPa·s]
– | 804.8 | 3.103

CCC(C)=O [butanone] + ClC(Cl)=C(Cl)Cl
[2], x2 = 0
Conditions | mass density [kg/m3] | viscosity [mPa·s]
– | 797.4 | 0.4011

ClC=C(Cl)Cl [trichloroethene] + CCC(C)O
[2]
Conditions | mass density [kg/m3] | viscosity [mPa·s]
x1 = 0.102 | 868.5 | 2.502
x1 = 0.2035 | 932.3 | 2.019
x1 = 0.304 | 996.3 | 1.641
x1 = 0.4049 | 1061.2 | 1.344
x1 = 0.505 | 1125.4 | 1.128
x1 = 0.6051 | 1190.1 | 0.9463
x1 = 0.7042 | 1255.7 | 0.8155
x1 = 0.8033 | 1322 | 0.7014
x1 = 0.9014 | 1388.3 | 0.6101
x1 = 1 | 1455.7 | 0.551

ClC=C(Cl)Cl [trichloroethene] + c1ccccc1
[2]
Conditions | mass density [kg/m3] | viscosity [mPa·s]
x1 = 0.0997 | 923.8 | 0.5937
x1 = 0.1995 | 981.7 | 0.584
x1 = 0.2988 | 1037.2 | 0.5761
x1 = 0.3987 | 1094.6 | 0.5682
x1 = 0.4986 | 1152.3 | 0.5621
x1 = 0.5991 | 1211 | 0.5573
x1 = 0.6991 | 1269.8 | 0.5573
x1 = 0.7989 | 1330.3 | 0.5517
x1 = 0.8998 | 1391.9 | 0.5499
x1 = 1 | 1455.7 | 0.551

Cc1ccccc1 [toluene] + ClC=C(Cl)Cl
[2], x2 = 0
Conditions | mass density [kg/m3] | viscosity [mPa·s]
– | 860.5 | 0.5641

CCOC(C)=O [ethyl acetate] + ClC(Cl)=C(Cl)Cl
[2], x2 = 0
Conditions | mass density [kg/m3] | viscosity [mPa·s]
– | 894 | 0.4274

CC(C)O [propan-2-ol] + ClC(Cl)=C(Cl)Cl
[2], x2 = 0
Conditions | mass density [kg/m3] | viscosity [mPa·s]
– | 784.3 | 2.044

ClC(Cl)=C(Cl)Cl [tetrachloroethene] + CCCO
[2]
Conditions | mass density [kg/m3] | viscosity [mPa·s]
x1 = 0.0749 | 879 | 1.79
x1 = 0.1541 | 958.4 | 1.632
x1 = 0.2379 | 1038.5 | 1.488
x1 = 0.3269 | 1117.4 | 1.35
x1 = 0.4214 | 1197.5 | 1.218
x1 = 0.5229 | 1278.9 | 1.11
x1 = 0.6302 | 1360.9 | 1.011
x1 = 0.745 | 1442.8 | 0.9253
x1 = 0.8679 | 1525.7 | 0.8657
x1 = 1 | 1610.2 | 0.8474

c1ccccc1 [benzene] + ClC(Cl)=C(Cl)Cl
[2], x2 = 0
Conditions | mass density [kg/m3] | viscosity [mPa·s]
– | 869.7 | 0.608

ClC=C(Cl)Cl [trichloroethene] + COC(C)=O
[2]
Conditions | mass density [kg/m3] | viscosity [mPa·s]
x1 = 0.09 | 972.6 | 0.4128
x1 = 0.182 | 1022.8 | 0.4443
x1 = 0.2755 | 1074.4 | 0.4699
x1 = 0.372 | 1125.3 | 0.4925
x1 = 0.4703 | 1177.5 | 0.5147
x1 = 0.5713 | 1230.9 | 0.5325
x1 = 0.6748 | 1283.9 | 0.5447
x1 = 0.7806 | 1341 | 0.555
x1 = 0.8886 | 1397.9 | 0.5598
x1 = 1 | 1455.7 | 0.551

ClC=C(Cl)Cl [trichloroethene] + CCCO
[2]
Conditions | mass density [kg/m3] | viscosity [mPa·s]
x1 = 0.0848 | 864.2 | 1.705
x1 = 0.1725 | 928.6 | 1.486
x1 = 0.2627 | 992.9 | 1.281
x1 = 0.3567 | 1058.3 | 1.099
x1 = 0.4541 | 1122.4 | 0.9476
x1 = 0.5556 | 1188.3 | 0.8226
x1 = 0.6604 | 1254.3 | 0.7262
x1 = 0.7691 | 1320.6 | 0.6463
x1 = 0.8823 | 1387.5 | 0.5848
x1 = 1 | 1455.7 | 0.551

ClC=C(Cl)Cl [trichloroethene] + CC(C)O
[2]
Conditions | mass density [kg/m3] | viscosity [mPa·s]
x1 = 0.0866 | 850.4 | 1.764
x1 = 0.1754 | 916.6 | 1.514
x1 = 0.2667 | 982.1 | 1.306
x1 = 0.3613 | 1047.6 | 1.119
x1 = 0.4594 | 1113.9 | 0.9582
x1 = 0.5602 | 1180.9 | 0.8218
x1 = 0.665 | 1249.2 | 0.7173
x1 = 0.7724 | 1316.8 | 0.6451
x1 = 0.8846 | 1385.9 | 0.6004
x1 = 1 | 1455.7 | 0.551

ClC(Cl)=C(Cl)Cl [tetrachloroethene] + CCOC(C)=O
[2]
Conditions | mass density [kg/m3] | viscosity [mPa·s]
x1 = 0.0962 | 961.2 | 0.4946
x1 = 0.1932 | 1030.8 | 0.5525
x1 = 0.291 | 1100.6 | 0.6095
x1 = 0.3899 | 1171 | 0.6633
x1 = 0.4894 | 1241.8 | 0.711
x1 = 0.5901 | 1313.6 | 0.7481
x1 = 0.6911 | 1385.7 | 0.7788
x1 = 0.7937 | 1460 | 0.8078
x1 = 0.8964 | 1534.5 | 0.8295
x1 = 1 | 1610.2 | 0.8474

CCO [ethanol] + ClC(Cl)=C(Cl)Cl
[2], x2 = 0
Conditions | mass density [kg/m3] | viscosity [mPa·s]
– | 787.4 | 1.112

Cc1ccccc1 [toluene] + ClC(Cl)=C(Cl)Cl
[2], x2 = 0
Conditions | mass density [kg/m3] | viscosity [mPa·s]
– | 860.5 | 0.5641
